# “Also recorded” adds a separate entry of the source.
# Key:
# [1] = test system: Male SD (Sprague-Dawley) rats; experiment: APAP-induced hepatotoxicity in rats: histological liver tissue sections (Total HAI-score); conditions: single oral dose; for Total HAI-score: excipient 1.67 mg/kg + APAP 1000 mg/kg; for liver tissue sections, hepatocyte morphology (in words): liver protection groups + APAP 1000 mg/kg, H&E stain 200×, FIG. 2
# [2] = test system: Male SD (Sprague-Dawley) rats; experiment: APAP-induced hepatotoxicity in rats: galactose single point (GSP) residual liver function test; type: in vivo, rat; conditions: excipient 1.67 mg/kg + APAP 1000 mg/kg, single oral dose
# Description: After the study was completed, all rats were subjected to GSP test. Rats were i.v. injected with 0.4 g/ml BW galactose solution 0.5 g/kg within 30 seconds and one blood sample was collected at 5, 10, 15, 30, 45 and 60 minutes post injection from the tail vein. Colorimetric galactose dehydrogenase is used to quantify the concentration of galactose and the test concentration ranges from 50 to 1,000 μg/ml. The within-day variation of each concentration is calculated using standard deviation and coefficient of variation (CV) and the maximum allowable coefficient of variation is 10% CV, whereas day-to-day variation is examined by comparing the slope and intercept of calibration curves. The GSP is the blood galactose concentration obtained 60 seconds after stopping the 30-second injection.
# [3] = target: Cytochrome P450 2E1 (CYP2E1) (Rattus norvegicus, UniProt P05182); experiment: In-vitro screening of CYP2E1 inhibitors in rat liver microsomes (chlorzoxazone 6-hydroxylation)
# Chain of Cytochrome P450 2E1 (CYP2E1) (Rattus norvegicus, UniProt P05182) (P05182 whole entry): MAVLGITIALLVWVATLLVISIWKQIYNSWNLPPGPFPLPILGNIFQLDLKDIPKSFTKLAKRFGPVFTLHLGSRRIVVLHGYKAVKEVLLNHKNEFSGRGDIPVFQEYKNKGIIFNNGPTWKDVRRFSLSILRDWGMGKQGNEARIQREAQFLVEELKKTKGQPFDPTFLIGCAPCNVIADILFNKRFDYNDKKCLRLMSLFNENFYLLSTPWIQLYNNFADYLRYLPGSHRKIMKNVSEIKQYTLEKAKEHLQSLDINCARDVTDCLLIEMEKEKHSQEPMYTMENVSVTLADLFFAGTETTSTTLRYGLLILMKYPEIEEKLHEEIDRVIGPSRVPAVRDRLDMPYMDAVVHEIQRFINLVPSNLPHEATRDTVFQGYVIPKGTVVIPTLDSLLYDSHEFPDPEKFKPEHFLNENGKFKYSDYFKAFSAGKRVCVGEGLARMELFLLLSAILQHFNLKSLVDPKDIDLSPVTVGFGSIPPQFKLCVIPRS
# Description: (§1) This example is preparation of microsomes from rat and human liver for in vitro screening of CYP2E1 inhibitors. A total of 55 safe and edible excipients are included in the screening for cytochrome P450 2E1 (CYP2E1) inhibitors. […] After addition of the test sample, the amount of CYP2E1 metabolite standard 6-OH—CZX (6-Hydroxy-Chlorzoxazone) is used for calculation of the CYP 2E1 inhibition ratio of the test sample by using the amount of 6-OH—CZX of the control group as the baseline.
# (§2) Transfer to and pre-incubate the reaction mixture in a water bath at 37° C. for 1 minute. […] Incubate the sample for 1 minute and add internal standard (5 ug/mL 4-hydroxy-tobutamide).
# [4] = target: Cytochrome P450 2E1 (CYP2E1) (Homo sapiens, UniProt P05181); experiment: In-vitro screening of CYP2E1 inhibitors in human liver microsomes (chlorzoxazone 6-hydroxylation)
# Chain of Cytochrome P450 2E1 (CYP2E1) (Homo sapiens, UniProt P05181) (P05181 whole entry): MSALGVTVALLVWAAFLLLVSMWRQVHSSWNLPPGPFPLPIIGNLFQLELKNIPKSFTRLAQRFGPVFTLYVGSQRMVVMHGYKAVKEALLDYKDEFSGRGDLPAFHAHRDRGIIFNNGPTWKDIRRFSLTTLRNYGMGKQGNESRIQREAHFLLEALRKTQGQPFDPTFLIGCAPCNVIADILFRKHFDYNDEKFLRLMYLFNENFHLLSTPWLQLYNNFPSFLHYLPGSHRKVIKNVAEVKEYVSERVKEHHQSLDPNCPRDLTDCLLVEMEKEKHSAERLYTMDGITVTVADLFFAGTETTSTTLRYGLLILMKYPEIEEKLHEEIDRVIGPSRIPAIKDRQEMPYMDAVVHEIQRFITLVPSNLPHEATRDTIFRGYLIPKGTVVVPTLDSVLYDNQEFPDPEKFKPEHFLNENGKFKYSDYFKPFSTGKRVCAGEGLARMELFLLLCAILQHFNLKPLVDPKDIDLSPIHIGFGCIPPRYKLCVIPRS
# Description: as §1, §2
# [5] = test system: Male SD (Sprague-Dawley) rats; experiment: APAP-induced hepatotoxicity in rats: plasma AST and ALT activity; type: in vivo, rat; conditions: for improvement of APAP liver damage (AST, ALT, GSP and Total HAI-score, in words): combined with APAP 1000 mg/kg, versus APAP hepatotoxicity group; for ALT / AST: excipient 1.67 mg/kg + APAP 1000 mg/kg, single oral dose
# Description: After completion of the treatments, rats were sacrificed under ether anesthesia, and blood was collected from the tail artery of the rats and placed in a test tube containing EDTA. The plasma was centrifuged at 13,000 at 4° C. for 15 minutes and the isolated plasma was transferred to Eppendorf tubes in aliquots and stored at −80° C.
# Liver damage is quantified by measuring plasma AST and ALT activity. AST and ALT are common indicators of hepatotoxicity and are measured by using the Synchron LXi 725 system (Beckman Instruments, U.S.).
# [6] = rat liver microsomes, test concentration 16.5 μM
# [7] = rat liver microsomes, test concentration 33 μM
# [8] = rat liver microsomes, test concentration 66 μM
# [9] = human liver microsomes, test concentration 16.5 μM
# [10] = human liver microsomes, test concentration 33 μM
# [11] = human liver microsomes, test concentration 66 μM
# [12] = rat, microsomes, 30 min, 16.5 μM, pH 7.4
# [13] = rat, microsomes, 30 min, 33 μM, pH 7.4
# [14] = rat, microsomes, 30 min, 66 μM, pH 7.4
molecule,measurement,setting,value
CC1CCC(C(C)C)C(O)C1 (stereo not drawn) [Menthol],Total HAI-score,[1],11 ± 1.2
same,"liver tissue sections, hepatocyte morphology (in words)",[1],more intact around the central vein and have a apparent nucleus with less vacuolization; also recorded: hepatocytes are relatively intact with visible nucleus and less vacuolization
same,GSP,[2],289 ± 20 mg/L
same,CYP 2E1 inhibition ratio,[3]; [6],7.2 ± 2.9%
same,CYP 2E1 inhibition ratio,[3]; [7],15.3 ± 7.9%
same,CYP 2E1 inhibition ratio,[3]; [8],36.4 ± 0.3%
same,CYP 2E1 inhibition ratio,[4]; [9],10.5 ± 0.4%
same,CYP 2E1 inhibition ratio,[4]; [10],20.8 ± 2.1%
same,CYP 2E1 inhibition ratio,[4]; [11],30.8 ± 0.3%
same,"improvement of APAP liver damage (AST, ALT, GSP and Total HAI-score, in words)",[5],significant decrease
same,ALT,[5],109 ± 23 IU/L
same,AST,[5],187 ± 21 IU/L
COC(=O)c1ccc(O)cc1 [Methylparaben],CYP 2E1 inhibition ratio,[3]; [12],4.6 ± 3.2%
same,CYP 2E1 inhibition ratio,[3]; [13],−14.6 ± 4.1%
same,CYP 2E1 inhibition ratio,[3]; [14],−21.5 ± 2.0%
CCCOC(=O)c1ccc(O)cc1 [Propylparaben],CYP 2E1 inhibition ratio,[3]; [12],−4.1 ± 1.2%
same,CYP 2E1 inhibition ratio,[3]; [13],−17.2 ± 2.4%
same,CYP 2E1 inhibition ratio,[3]; [14],−27.3 ± 3.7%
O=C1NS(=O)(=O)c2ccccc21 [Saccharin],CYP 2E1 inhibition ratio,[3]; [6],35.3 ± 2.0%
same,CYP 2E1 inhibition ratio,[3]; [7],59.6 ± 3.3%
same,CYP 2E1 inhibition ratio,[3]; [8],67.4 ± 3.9%
same,CYP 2E1 inhibition ratio,[4]; [9],29.4 ± 2.7%
same,CYP 2E1 inhibition ratio,[4]; [10],51.2 ± 0.9%
same,CYP 2E1 inhibition ratio,[4]; [11],78.5 ± 2.1%
O=C([O-])c1ccccc1.[Na+] [Sodium benzoate],CYP 2E1 inhibition ratio,[3]; [6],7.1 ± 2.0%
same,CYP 2E1 inhibition ratio,[3]; [7],7.8 ± 4.1%
same,CYP 2E1 inhibition ratio,[3]; [8],15.8 ± 0.9%
CCCCCCCCCCCCOS(=O)(=O)[O-].[Na+] [Sodium lauryl sulfate],CYP 2E1 inhibition ratio,[3]; [6],4.6 ± 1.1%
same,CYP 2E1 inhibition ratio,[3]; [7],6.4 ± 0.9%
same,CYP 2E1 inhibition ratio,[3]; [8],4.8 ± 1.2%
C/C=C/C=C/C(=O)O [Sorbic acid],CYP 2E1 inhibition ratio,[3]; [6],12.1 ± 5.7%
same,CYP 2E1 inhibition ratio,[3]; [7],13.2 ± 4.4%
same,CYP 2E1 inhibition ratio,[3]; [8],19.0 ± 5.6%
same,CYP 2E1 inhibition ratio,[4]; [9],8.4 ± 1.6%
same,CYP 2E1 inhibition ratio,[4]; [10],10.9 ± 2.7%
same,CYP 2E1 inhibition ratio,[4]; [11],14.8 ± 0.1%
OC[C@@H](O)[C@@H](O)[C@H](O)[C@@H](O)CO [Sorbitol],CYP 2E1 inhibition ratio,"[3]; rat, microsomes, 30 min, 0.024 %, pH 7.4",6.4 ± 0.5%
same,CYP 2E1 inhibition ratio,"[3]; rat, microsomes, 30 min, 0.084 % (w/v), pH 7.4",5.6 ± 0.5%
same,CYP 2E1 inhibition ratio,"[3]; rat, microsomes, 30 min, 0.167 % (w/v), pH 7.4",16.1 ± 0.7%
OC[C@H]1O[C@H](O[C@]2(CCl)O[C@H](CCl)[C@@H](O)[C@@H]2O)[C@H](O)[C@@H](O)[C@H]1Cl [Sucralose],Total HAI-score,[1],0.6 ± 0.4
same,"liver tissue sections, hepatocyte morphology (in words)",[1],most similar to the liver tissue sections of normal rats; also recorded: hepatocytes are relatively intact with visible nucleus and less vacuolization
same,GSP,[2],218 ± 31 mg/L
same,CYP 2E1 inhibition ratio,[3]; [12],41.1 ± 2.7%
same,CYP 2E1 inhibition ratio,[3]; [13],46.8 ± 0.8%
same,CYP 2E1 inhibition ratio,[3]; [14],54.0 ± 4.2%
same,CYP 2E1 inhibition ratio,"[4]; human, microsomes, 30 min, 16.5 μM, pH 7.4",37.1 ± 2.8%
same,CYP 2E1 inhibition ratio,"[4]; human, microsomes, 30 min, 33 μM, pH 7.4",45.8 ± 4.0%
same,CYP 2E1 inhibition ratio,"[4]; human, microsomes, 30 min, 66 μM, pH 7.4",55.8 ± 2.0%
same,"improvement of APAP liver damage (AST, ALT, GSP and Total HAI-score, in words)",[5],significant decrease
same,ALT,[5],83 ± 23 IU/L
same,AST,[5],199 ± 24 IU/L
Magnesium stearate,CYP 2E1 inhibition ratio,[3]; [6],2.0 ± 1.0%
same,CYP 2E1 inhibition ratio,[3]; [7],3.0 ± 0.7%
same,CYP 2E1 inhibition ratio,[3]; [8],5.0 ± 1.6%

# Source: US10420737B2, “Hepatotoxicity-free pharmaceutical composition containing acetaminophen drugs” (NATIONAL DEFENSE EDUCATION AND RESEARCH FOUNDATION, priority 2013, dated 2019)
